In ChEMBL document CHEMBL4266060, “Structure-Property Relationship Studies of Influenza A Virus AM2-S31N Proton Channel Blockers” (ACS Med Chem Lett, 2018):

Columns and labels:
Influenza A virus [1] = assay: microbe, parasite or virus in culture; conditions: A/North Carolina/29/2009(H1N1), MDCK
Influenza A virus [2] = assay: microbe, parasite or virus in culture; conditions: MDCK
Influenza A virus [3] = assay: microbe, parasite or virus in culture; conditions: MDCK; remark: listed apart in the source
Influenza A virus [4] = assay: microbe, parasite or virus in culture; conditions: MDCK; remark: listed apart in the source
Influenza A virus [5] = assay: microbe, parasite or virus in culture; conditions: MDCK; remark: listed apart in the source
Influenza A virus [6] = conditions: mdck

SMILES	EC50 (Influenza A virus [1])	EC50 (Influenza A virus [2])	EC50 (Influenza A virus [3])	EC50 (Influenza A virus [4])	EC50 (Influenza A virus [5])	EC50 (Influenza A virus [6])
CCC(CC)O[C@@H]1C=C(C(=O)O)C[C@H](N)[C@H]1NC(C)=O [OSELTAMIVIR CARBOXYLATE]	> 200 nM	> 200 nM	2.5 nM	> 200 nM	> 200 nM	
OC12CC3CC(C1)CC(NCc1ccc(Br)s1)(C3)C2	2800 nM	2000 nM	1400 nM	600 nM	700 nM	
OC12CC3CC(C1)CC(NCc1ccc(I)s1)(C3)C2		700 nM	800 nM	600 nM	400 nM	1100 nM
